Read-outs that look alike come from different tables or passages of the source.
Test: Pharmacokinetics after IV administration, brain penetration assessment
Format: in vivo, rat
Conditions: for concentration at 60 min / concentration at 240 min / concentration at 15 min: iv, 7.5 mg/kg
Experimental: In three of the rats tested in Example 56, indicated as R1, […], also the pharmacokinetic profile of compound 8 (R,R) was evaluated. The results are summarised in Tables III to IV and in FIGS. 1-4.
In tables III and V, T1/2 means the half-time of the compound, Tmax means the time at which the concentration of the compound reaches the maximum level, Cmax means the maximal concentration, Tlast means the latest time-point at which the concentration of the compound can be measured, Clast means the concentration at the latest time-point at which the concentration of the compound can be measured, AUClast means the area under the curve at the latest time-point at which the concentration of the compound can be measured, AUCinf_obs means the area under the curve which is infinitely extrapolated and MRTlast means the mean residence time at the latest time-point at which the concentration of the compound can be measured.
In tables IV and VI, LLOQ means lower limit of quantification.
Brain penetration was performed by IV administration at 7.5 mg/kg.

[1] = IV 7.5 mg/kg, Time 480, Average
[2] = Sprague-Dawley (SD), rat, IV 7.5 mg/kg, Brain
[3] = Sprague-Dawley (SD), rat, IV 7.5 mg/kg, Plasma
[4] = Sprague-Dawley, rat, IV 7.5 mg/kg, Brain

## COc1ccccc1CN(C(=O)CC(C)C)[C@@H](C(=O)NC[C@H]1CCCO1)c1ccc(C)cc1 [Compound 8 (R,R), 3-methyl-N-(2-methoxybenzyl)-N-{[(1R)-1-(4-methylphenyl)]-2-oxo-2-[(2R)-(tetrahydrofuran-2-ylmethyl)amino]ethyl}butanamide]
IV 7.5 mg/kg, Brain
  Tlast: 60 min
IV 7.5 mg/kg, Plasma
  Tlast: 240 min
IV 7.5 mg/kg, Time 15, Average
  Brain level: 635.1 ng/g
IV 7.5 mg/kg, Time 15, R1
  Brain level: 619.3 ng/g
IV 7.5 mg/kg, Time 15, R2
  Brain level: 446.05 ng/g
IV 7.5 mg/kg, Time 15, R3
  Brain level: 839.85 ng/g
IV 7.5 mg/kg, Time 240, Average
  Brain level: <LLOQ
IV 7.5 mg/kg, Time 240, R1
  Brain level: <LLOQ
IV 7.5 mg/kg, Time 240, R2
  Brain level: <LLOQ
IV 7.5 mg/kg, Time 240, R3
  Brain level: <LLOQ
[1]
  Brain level: <LLOQ
  plasma level: <LLOQ
IV 7.5 mg/kg, Time 480, R1
  Brain level: <LLOQ
  plasma level: <LLOQ
IV 7.5 mg/kg, Time 480, R2
  Brain level: <LLOQ
  plasma level: <LLOQ
IV 7.5 mg/kg, Time 480, R3
  Brain level: <LLOQ
  plasma level: <LLOQ
Sprague-Dawley (SD), rat, brain, Brain, read-out: Clast
  concentration at 60 min: 48.8 ng/mL
Sprague-Dawley (SD), rat, plasma, Plasma, read-out: Clast
  concentration at 240 min: 4.2 ng/mL
[2]
  AUC(0-t): 523 ng·h/mL
  MRT last: 11.2 min
[3]
  AUC(0-t): 1200 ng·h/mL
  MRT last: 15.9 min
  Tmax: 15 min
Sprague-Dawley (SD), rat, IV 7.5 mg/kg, Plasma, read-out: T½
  half-life: 12.5 min
Sprague-Dawley, rat, brain, Time 60, Average, read-out: Brain level
  concentration at 60 min: 48.8 ng/g
Sprague-Dawley, rat, brain, Time 60, R1, read-out: Brain level
  concentration at 60 min: 62.1 ng/g
Sprague-Dawley, rat, brain, Time 60, R2, read-out: Brain level
  concentration at 60 min: 34.6 ng/g
Sprague-Dawley, rat, brain, Time 60, R3, read-out: Brain level
  concentration at 60 min: 49.5 ng/g
Sprague-Dawley, rat, brain, IV 7.5 mg/kg, average on the AUC ratio
  Kp: ~0.43
Sprague-Dawley, rat, plasma, Time 15, Average, read-out: Plasma level
  concentration at 15 min: 1400 ng/mL
Sprague-Dawley, rat, plasma, Time 15, R1, read-out: Plasma level
  concentration at 15 min: 1600 ng/mL
Sprague-Dawley, rat, plasma, Time 15, R2, read-out: Plasma level
  concentration at 15 min: 1140 ng/mL
Sprague-Dawley, rat, plasma, Time 15, R3, read-out: Plasma level
  concentration at 15 min: 1470 ng/mL
Sprague-Dawley, rat, plasma, Time 60, Average, read-out: Plasma level
  concentration at 60 min: 162 ng/mL
Sprague-Dawley, rat, plasma, Time 60, R1, read-out: Plasma level
  concentration at 60 min: 123 ng/mL
Sprague-Dawley, rat, plasma, Time 60, R2, read-out: Plasma level
  concentration at 60 min: 157 ng/mL
Sprague-Dawley, rat, plasma, Time 60, R3, read-out: Plasma level
  concentration at 60 min: 205 ng/mL
Sprague-Dawley, rat, plasma, Time 240, Average, read-out: Plasma level
  concentration at 240 min: 4.2 ng/mL
Sprague-Dawley, rat, plasma, Time 240, R1, read-out: Plasma level
  concentration at 240 min: 4.05 ng/mL
Sprague-Dawley, rat, plasma, Time 240, R2, read-out: Plasma level
  concentration at 240 min: 3.35 ng/mL
Sprague-Dawley, rat, plasma, Time 240, R3, read-out: Plasma level
  concentration at 240 min: 5.2 ng/mL
[4]
  Cmax: 635 ng/g
  Tmax: 15 min
Sprague-Dawley, rat, IV 7.5 mg/kg, Plasma
  Cmax: 1400 ng/mL
